In patent publication US9550796B2, “Pyrrolopyrrolone derivatives and their use as BET inhibitors” (NOVARTIS AG, priority 2013, dated 2017):

Legend:
THP-1 = assay: Cell growth inhibition assay (CellTiter-Glo), THP-1; format: cell-based, human; conditions: THP-1 cells, 4 days; for GI50: Homo sapiens, 96 h, half-maximal growth inhibition; for THP-1 TGI: total growth inhibition
Description: (§1) Cell Growth Inhibition Assay
(§2) The human leukemia cell lines MV-4-11, THP-1 and K-562 were employed to characterize the effect of BET inhibitors on cellular proliferation and viability. Cells were obtained from the American Type Culture Collection (ATCC) and cultured at 37° C. in a humidified 5% CO2 incubator in the following media: MV-4-11: DMEM high glucose (Animed #1-26F01-I), 10% FCS (Animed #2-01F26-I), 4 mM L-Glutamine (Animed #5-10K50), 1 mM Sodium Pyruvate (Animed # G03625P), 1× Penicillin-Streptomycin (Animed # F12478P); K-562: Iscove's MEM (Animed #1-28F16-I), 10% FCS (Animed #2-01F26-I), 4 mM L-Glutamine (Animed #5-10K50), 1× Penicillin-Streptomycin (Animed # F12478P); THP-1: RPMI-1640 (Animed #1-41F01-I), 10% FCS (Animed #2-01F26-I), 2 mM L-Glutamine (Animed #5-10K50), 10 mM HEPES (Animed #5-31F100), 1 mM Sodium Pyruvate (Animed # G03625P), 1× Penicillin-Streptomycin (Animed # F12478P). The AML lines MV-4-11 and THP-1 are very sensitive to BET inhibitors and show massive cell death upon BET inhibition (Zuber et al., Nature, 478 (2011), 524-8). Compound-mediated suppression of cell proliferation/viability was assessed by quantification of cellular ATP levels using the CellTiter-Glo (CTG) reagent (Promega). Briefly, cells were seeded in 20 μl fresh medium into 384-well plates, followed by addition of 5 μL medium containing compound dilutions at 5-fold their final intended concentration. Dose-response effects were assessed by 3-fold serial dilutions of the test compound, starting at 10 μM. Following incubation of the cells for 4 days at 37° C. and 5% CO2, the effect of inhibitors on cell viability was quantified following addition of 20 μl CTG and luminescence quantification (integration time: 100 ms) as per vendor manual, using a correspondingly equipped Tecan M200 multi-mode platereader (TECAN, Switzerland). For data analysis, the assay background value determined in wells containing medium, but no cells, was subtracted from all data points. To enable differentiation of cytotoxic from cytostatic compounds, the number of viable cells is assessed relative to that observed at the time of compound addition using a separate cell plate (day 0). The effect of a particular test compound concentration on cell proliferation/viability is expressed as percentage of the background- and day 0-corrected luminescence reading obtained for cells treated with vehicle only (DMSO, 0.1% final concentration), which is set as 100%, whereas that luminescence reading for wells containing medium is set as −100%. Compound concentrations leading to half-maximal (IC50) and total growth inhibition (TGI) were determined using standard four parameter curve fitting.

MV-4-11 = assay: Cell growth inhibition assay (CellTiter-Glo), MV-4-11; format: cell-based, human; conditions: MV-4-11 cells, 4 days; for GI50: Homo sapiens, MV4-11, 96 h, half-maximal growth inhibition; for MV-4-11 TGI: total growth inhibition
Description: as §1, §2

CREBBP = CREBBP (Homo sapiens (Human), UniProt Q92793); assay: AlphaScreen in-vitro binding assay for CREBBP; conditions: 324 nM His-CREBBP (1081-1197), acetyl-histone H4 (AcK 5, 8, 12) peptide
Description: AlphaScreen In-Vitro Binding Assay for CREBBP
In order to assess bromodomain selectivity, we set up a binding assay using the bromodomain encoded by the CREBBP gene. […] The assay was started by stepwise addition of 4.5 μL per well of bromo domain protein (50 mM HEPES, pH 7.5, 0.005% Tween20, 0.02% BSA, 150 mM NaCl, 324 nM His-CREBBP (1081-1197) (custom production at Viva Biotech Ltd.)) and 4.5 μL per well of peptide solution (50 mM HEPES, pH 7.5, 0.005% Tween20, 0.02% BSA, 150 mM NaCl, 120 nM acetyl-histone H4 (AcK 5, 8, 12) (Biosyntan GmbH)). Reactions were incubated at 30° C. for 35 minutes. Subsequently 4.5 μL per well detection mix (50 mM HEPES, pH 7.5, 0.005% Tween20, 0.02% BSA, 150 mM NaCl, 45 μg/ml Ni-chelate acceptor beads, 45 μg/mL streptavidin-donor beads) (Perkin Elmer)) were added. After 60 minutes incubation at room temperature, plates were measured in a Perkin Elmer EnVision multilabel reader. IC50 values were determined from percent inhibition values at different compound concentrations by non-linear regression analysis.
Test compounds were dissolved in DMSO (10 mM) and transferred into 1.4 mL flat bottom or V-shaped Matrix tubes carrying a unique 2D matrix. The stock solutions were stored at […] if not used immediately. For the test procedure the vials were defrosted and identified by a scanner whereby a working sheet was generated that guided the subsequent working steps. Compound dilutions were made in 96 well plates. This format enabled the assay of maximally […] at 8 concentrations (single points) including 4 reference compounds, if desired (known BET inhibitors from the prior art, for this and other assays of the type disclosed herein). The dilution protocol included the production of “pre-dilution plates”, “master plates” and “assay plates”.
Polypropylene 96-well plates were used as pre-dilution plates. A total of 4 pre-dilution plates were prepared including 10 test compounds each on the plate positions A1-A10, one standard compound at A11 and one DMSO control at […]. All dilution steps were done on a HamiltonSTAR robot.
30 μL of individual compound dilutions including standard compound and controls of the 4 “pre-dilution plates” were transferred into a 384-well “master plate” including the following concentrations 10000, […], 1000, 300, 100, 30, 10 and 3 μM, respectively in 90% of DMSO.
Identical “assay plates” were then prepared by pipetting 50 nL each of compound dilutions of the “master plates” into 384-well “assay plates” by means of a HummingBird 384-channel dispenser. These plates were used directly for the assay which was performed in a total volume of 13.55 μL.

BRD3 = BRD3 (Homo sapiens (Human), UniProt Q15059); assay: TR-FRET in-vitro binding assay for BRD3; conditions: 45 nM His-Brd3(20-477), acetyl-histone H4 (AcK 5, 8, 12, 16) peptide
Description: (§3) TR-FRET In-Vitro Binding Assays for BRD2, BRD3, and BRD4: All assays were performed in 384-well microtiter plates. […] Liquid handling and incubation steps were done on an Innovadyne Nanodrop Express equipped with a robotic arm (Thermo CatX, Perkin Elmer/Caliper Twister II) and an incubator (Liconic STX40, Thermo Cytomat 2C450). The assay plates were prepared by addition of 50 nl per well of compound solution in 90% DMSO HummingBird nanodispenser (Zinsser Analytic). […] Reactions were incubated at 30° C. for 35 minutes. […] After 35 minutes incubation at 30° C., plates were measured in a Perkin Elmer EnVision multilabel reader. […] The stock solutions were stored at […] if not used immediately. For the test procedure the vials were defrosted and identified by a scanner whereby a working sheet was generated that guided the subsequent working steps. Compound dilutions were made in 96 well plates. This format enabled the assay of maximally […] at 8 concentrations (single points) including 4 reference compounds, if desired (known BET inhibitors from the prior art, for this and other assays of the type disclosed herein). The dilution protocol included the production of “pre-dilution plates”, “master plates” and “assay plates”. Polypropylene 96-well plates were used as pre-dilution plates. […] All dilution steps were done on a HamiltonSTAR robot. […] Identical “assay plates” were then prepared by pipetting 50 nL each of compound dilutions of the “master plates” into 384-well “assay plates” by means of a HummingBird 384-channel dispenser. These plates were used directly for the assay which was performed in a total volume of 13.55 μL.

K-562 = assay: Cell growth inhibition assay (CellTiter-Glo), K-562; format: cell-based, human; conditions: K-562 cells, 4 days; for GI50: Homo sapiens, K562, 96 h, half-maximal growth inhibition; for K-562 TGI: total growth inhibition
Description: as §1, §2

BRD4 = BRD4 (Homo sapiens (Human), UniProt O60885); assay: TR-FRET in-vitro binding assay for BRD4; conditions: 45 nM His-Brd4(44-477), acetyl-histone H4 (AcK 5, 8, 12, 16) peptide
Description: as §3

Chain of CREBBP (Q92793 1081-1197): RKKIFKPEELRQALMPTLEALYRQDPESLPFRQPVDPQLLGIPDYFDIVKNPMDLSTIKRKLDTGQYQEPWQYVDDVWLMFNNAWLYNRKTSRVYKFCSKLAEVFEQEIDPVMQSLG
Chain of BRD3 (Q15059 20-477): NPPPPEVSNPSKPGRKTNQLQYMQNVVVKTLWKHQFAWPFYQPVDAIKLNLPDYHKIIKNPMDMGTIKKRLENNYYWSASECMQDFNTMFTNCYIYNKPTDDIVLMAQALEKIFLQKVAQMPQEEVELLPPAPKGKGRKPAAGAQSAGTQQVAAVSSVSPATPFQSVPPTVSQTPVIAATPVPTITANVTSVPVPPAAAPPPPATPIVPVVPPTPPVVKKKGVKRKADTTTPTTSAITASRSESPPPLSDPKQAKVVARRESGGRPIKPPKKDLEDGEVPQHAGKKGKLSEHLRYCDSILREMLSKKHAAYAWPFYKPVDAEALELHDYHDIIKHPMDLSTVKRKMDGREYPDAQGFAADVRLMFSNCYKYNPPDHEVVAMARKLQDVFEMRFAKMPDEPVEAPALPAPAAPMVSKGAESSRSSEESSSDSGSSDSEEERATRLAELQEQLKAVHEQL

| GI50 (THP-1) [µM] | GI50 (MV-4-11) [µM] | IC50 (CREBBP) [µM] | IC50 (BRD3) [µM] | GI50 (K-562) [µM] | IC50 (BRD4) [µM] | Compound | THP-1 TGI (THP-1) [µM] | MV-4-11 TGI (MV-4-11) [µM] | K-562 TGI (K-562) [µM] |
| --- | --- | --- | --- | --- | --- | --- | --- | --- | --- |
| 0.0342 | 0.0315 | > 37 | 0.029 | 0.181 | 0.022 | Cc1cc(N2C(=O)c3c(NC(=O)CN(C)C)cn(C)c3C2c2ccc(Cl)cc2)cn2c(C(F)F)nnc12 (centres unmarked) [Example 134, N-(6-(4-chlorophenyl)-5-(3-(difluoromethyl)-8-methyl-[1,2,4]triazolo[4,3-a]pyridin-6-yl)-1-methyl-4-oxo-1,4,5,6-tetrahydropyrrolo[3,4-b]pyrrol-3-yl)-2-(dimethylamino)acetamide] | 0.0824 | 0.065 | >10 |
| 0.00336 | 0.00215 | 4.1 | 0.015 | 0.018 |  | Cc1cc(N2C(=O)c3c(C4CC4)cn(C)c3[C@H]2c2ccc(Cl)cc2)cn2c(C)nnc12 [Example 36, (R)-6-(4-chlorophenyl)-3-cyclopropyl-5-(3,8-dimethyl-[1,2,4]triazolo[4,3-a]pyridin-6-yl)-1-methyl-5,6-dihydropyrrolo[3,4-b]pyrrol-4(1H)-one] | 0.01091 | 0.00622 | >10 |
| 0.0337 | 0.0198 | 1.4 |  | 0.119 |  | CC(=O)Nc1cn(C)c2c1C(=O)N(c1cc(C)c3nnc(C)n3c1)[C@@H]2c1ccc(Cl)cc1 [Example 136, (R)—N-(6-(4-chlorophenyl)-5-(3,8-dimethyl-[1,2,4]triazolo[4,3-a]pyridin-6-yl)-1-methyl-4-oxo-1,4,5,6-tetrahydropyrrolo[3,4-b]pyrrol-3-yl)acetamide] | 0.0792 | 0.0395 | >10 |
| 0.00894 | 0.00408 | 6.1 | 0.015 | 0.0459 |  | Cc1cc(N2C(=O)c3c(C4CC4)cn(C)c3C2c2ccc(Cl)cc2)cn2c(C)nnc12 (centres unmarked) [Example 35, 6-(4-chlorophenyl)-3-cyclopropyl-5-(3,8-dimethyl-[1,2,4]triazolo[4,3-a]pyridin-6-yl)-1-methyl-5,6-dihydropyrrolo[3,4-b]pyrrol-4(1H)-one] | 0.01785 | 0.00867 | >10 |

More lines, now with the values behind:

| Compound | GI50 (THP-1) [µM] | GI50 (MV-4-11) [µM] | IC50 (CREBBP) [µM] | IC50 (BRD3) [µM] | GI50 (K-562) [µM] | IC50 (BRD4) [µM] | THP-1 TGI (THP-1) [µM] | MV-4-11 TGI (MV-4-11) [µM] | K-562 TGI (K-562) [µM] |
| --- | --- | --- | --- | --- | --- | --- | --- | --- | --- |
| Cc1cc(N2C(=O)c3cc(C4CCOCC4)n(C)c3C2c2ccc(Cl)cc2)cn2c(C)nnc12 (centres unmarked) [Example 121, 6-(4-chlorophenyl)-5-(3,8-dimethyl-[1,2,4]triazolo[4,3-a]pyridin-6-yl)-1-methyl-2-(tetrahydro-2H-pyran-4-yl)-5,6-dihydropyrrolo[3,4-b]pyrrol-4(1H)-one] | 0.0447 | 0.0549 | 0.64 | 0.044 | 0.164 | 0.056 | 0.0862 | 0.0893 | >10 |
| Cn1ccc2c1C(c1ccc(Cl)cc1)N(c1cc(Cl)c(=O)n(C)c1)C2=O (centres unmarked) [Example 76, 5-(5-chloro-1-methyl-6-oxo-1,6-dihydropyridin-3-yl)-6-(4-chlorophenyl)-1-methyl-5,6-dihydropyrrolo[3,4-b]pyrrol-4(1H)-one] | 0.119 | 0.107 |  |  | 0.367 | 0.037 | 0.238 | 0.178 | >10 |
| Cc1cc(N2C(=O)c3c(C4CC4)cn(C4COC4)c3C2c2ccc(Cl)cc2)cn2c(C)nnc12 (centres unmarked) [Example 18, 6-(4-chlorophenyl)-3-cyclopropyl-5-(3,8-dimethyl-[1,2,4]triazolo[4,3-a]pyridin-6-yl)-1-(oxetan-3-yl)-5,6-dihydropyrrolo[3,4-b]pyrrol-4(1H)-one] | 0.00463 | 0.00286 |  |  | 0.0164 | 0.012 | 0.01335 | 0.00813 | >10 |
| Cc1cc2c(n1C)C(c1ccc(Cl)cc1)N(c1cc(Cl)c(=O)n(C)c1)C2=O (centres unmarked) [Example 74, 5-(5-chloro-1-methyl-6-oxo-1,6-dihydropyridin-3-yl)-6-(4-chlorophenyl)-1,2-dimethyl-5,6-dihydropyrrolo[3,4-b]pyrrol-4(1H)-one] | 0.0927 | 0.0901 |  |  | 0.273 | 0.023 | 0.1715 | 0.142 | >10 |
